Assay results as given in patent US20070060620A1, “Use of RAR retinoid agonists to increase sperm count and sperm mobility in males” (priority 2005, published 2007).

Experiments:
[1] = system: sperm count and sperm motility; conditions: oral retinoids used for psoriasis or acne; cited from earlier work
[2] = plasma levels and half-life after clinical dosing with tazarotene; format: in vivo
Description: Thus, tazarotene and other RAR-specific retinoids are used in the method of the present invention to help with male infertility that is due to low sperm counts and/or low sperm motility. Furthermore, retinoids such as tazarotene may be used in any situation in which couples are trying to conceive, where a boost to sperm production/motility could bring about an increase in the chances that a female could become pregnant. As a practical matter, since retinoids at doses likely to be effective in these circumstances are highly teratogenic, an unintended effect might arise from the transfer of the retinoid to a female in the ejaculate of the male. […] Thus, in a period of 3 days, levels of retinoid in plasma (and also in seminal fluid) would be less than 2%, and after about one week would be less than 0.01% of the original levels. Clinical dosing with tazarotene (eg at 3-6 mg) provide levels of tazarotenic acid (the major metabolite of tazarotene) in plasma of about 75-150 ng/mL study. Thus, in 3 days, plasma levels would be expected to drop to about 2-3 ng/mL (endogenous levels of retinoid agonists such as tretinoin, isotretinoin and 4-oxo-13-cis retinoic acid may easily total over 6 ng/mL). Sperm count and motility are likely to remain elevated for some time, since sperm maturation occurs over a period of 72-74 days.

[3] = phase 2 studies in patients with psoriasis and acne: systemic side-effect profile; format: in vivo, human; conditions: compared with acitretin/etretinate and isotretinoin

| Compound | effect on sperm count and sperm motility [1] | levels of retinoid in plasma (and also in seminal fluid) relative to the original levels ([2]; after about one week of washout) | half-life ([2]; human, plasma, read-out: effective half-life in plasma) | levels of retinoid in plasma (and also in seminal fluid) relative to the original levels ([2]; in a period of 3 days of washout) | systemic side-effect profile [3] |
| --- | --- | --- | --- | --- | --- |
| COc1cc(C)c(/C=C/C(C)=C/C=C/C(C)=C/C(=O)O)c(C)c1C [acitretin] | increase in sperm count and sperm motility |  |  |  |  |
| CCOC(=O)/C=C(C)/C=C/C=C(C)/C=C/c1c(C)cc(OC)c(C)c1C [etretinate] | increase in sperm count and sperm motility |  |  |  |  |
| CC1=C(/C=C/C(C)=C/C=C/C(C)=C\C(=O)O)C(C)(C)CCC1 [isotretinoin] | increase in sperm count and sperm motility |  |  |  |  |
| CCOC(=O)c1ccc(C#Cc2ccc3c(c2)C(C)(C)CCS3)nc1 [tazarotene] |  | less than 0.01% | 7 to 12 h | less than 2% | far better than those of acitretin/etretinate and isotretinoin |
